Among the data in patent EP4644384A1 (Shanghai Lichun Biotech Co., Ltd., priority 2023, dated 2024) are IC50 values, retold here.

The assay concerns the target T1, CYP11A1 (Homo sapiens, UniProt P05108).
T1 construct: host or cells: NCI-H295R human adrenocortical cancer cells
T1 sequence (P05108 40-521): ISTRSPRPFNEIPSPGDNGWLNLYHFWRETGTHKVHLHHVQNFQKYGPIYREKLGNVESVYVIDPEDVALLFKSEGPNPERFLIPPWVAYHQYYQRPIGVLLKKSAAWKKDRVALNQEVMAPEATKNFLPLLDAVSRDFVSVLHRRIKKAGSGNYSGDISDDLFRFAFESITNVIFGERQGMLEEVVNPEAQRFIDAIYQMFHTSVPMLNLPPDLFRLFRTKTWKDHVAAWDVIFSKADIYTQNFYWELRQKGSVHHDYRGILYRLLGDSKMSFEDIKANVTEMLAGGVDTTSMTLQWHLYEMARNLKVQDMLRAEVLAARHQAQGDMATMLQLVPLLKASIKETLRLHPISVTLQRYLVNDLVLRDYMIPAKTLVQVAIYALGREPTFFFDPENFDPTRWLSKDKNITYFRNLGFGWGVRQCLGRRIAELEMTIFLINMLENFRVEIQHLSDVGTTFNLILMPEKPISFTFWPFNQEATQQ
Nature of the assay: Pregnenolone synthesis inhibition in NCI-H295R cells (pregnenolone ELISA of culture supernatant). The assay is classed as cell-based. As to conditions: 24 hours incubation, pregnenolone in culture supernatant by ELISA. The text has this:
Conversion of cholesterol into pregnenolone is a first rate-limiting step in the synthesis of all steroid hormones in vertebrates. This conversion reaction involves a two-step continuous monooxygenation reaction catalyzed by the unique cytochrome P450scc (CYP11A) to produce C22-hydroxycholesterol and C20,C22-dihydroxycholesterol in order, followed by CYP11A1-catalyzed breakage of a C20-C22 carbon-carbon single bond in C20,C22-dihydroxycholesterol to produce one molecule of pregnenolone and one molecule of 4-methylvaleraldehyde. Therefore, the inhibitory effect of a compound on CYP11A1 was identified by detecting the ability of the compound to inhibit pregnenolone synthesis.
The ability of different compounds to inhibit pregnenolone biosynthesis was determined by detecting the concentration of pregnenolone (Abnova pregnenolone ELISA kit, KA1912) using enzyme-linked immunosorbent assay (ELISA), so as to detect the ability of the compounds to inhibit CYP11A1. […] In order to determine the half-maximal inhibitory concentrations (IC50) of CYP11A1 inhibition by different compounds, the compounds were added during NCI-H295R cell culture, and after incubation, the concentration of pregnenolone in the culture supernatant was determined.
95 µl of NCI-H295R cells were taken and cultured overnight with a specialized cell culture medium (Procell, CM-0399) in a 96-well culture plate in a cell incubator at 37°C and 5% CO2. 5 µl/well of a DMSO (Sigma, D8418) solution of the compounds to be tested at different concentrations was then added, followed by continued incubation for 24 hours. The final concentrations of the compounds to be tested were 1000 nM, 333.33 nM, 111.11 nM, 37.04 nM, 12.35 nM, 4.12 nM, 1.37 nM, 0.46 nM, and 0 nM. After the incubation was complete, the cells were centrifuged, 80 µl/well of the cell culture supernatant was obtained and 1 : 8 diluted with the cell culture medium, and the concentration of pregnenolone therein was then determined by ELISA method. During ELISA detection, a pregnenolone standard was used to generate a standard curve. The experiment was carried out with replicate wells. The ELISA well plate had been coated with an anti-pregnenolone rabbit polyclonal antibody. In ELISA plate strips, 50 µl/well of the diluted culture supernatant or standard solution or reference substance was added, followed by 100 µl of a pregnenolone-HRP complex solution, and the plate was incubated for 1 hour at room temperature on a plate shaker (QILINBEIER, QB-9002) at 200 rpm. Then, the plate was washed three times with a cleaning solution, with 300 µl each time, and patted dry on absorbent paper. 150 µl of a TMB substrate was added. The plate was incubated on the plate shaker for 10-15 minutes at room temperature, and 50 µl of a stop solution was then added. The absorbance was measured at 450 nm by a microplate reader (PerkinElmer, 2105). The IC50 value was calculated by using GraphPad Prism software. [formula]
Background: In an ELISA, binding on a coated surface is turned into a signal by an enzyme label.
The IC50 is the concentration that gives 50% inhibition. The compound `[2H]C([2H])([2H])n1c(CN2Cc3ccc(F)cc3C2)ccc(OCC2CCN(S(=O)(=O)C3CC3)CC2)c1=O` [Compound 20] registered an IC50 of 1.94 nM.

Turning to `CN(C)S(=O)(=O)N1CCC(COc2ccc(CN3Cc4ccccc4C3)n(C)c2=O)CC1` [Compound 4, 4-(((6-(isoindolin-2-ylmethyl)-1-methyl-2-oxo-1,2-dihydropyridin-3-yl)oxy)methyl)-N,N-dimethylpiperidine-1-sulfonamide], the IC50 is 1.74 nM.

As to `CN(C)S(=O)(=O)N1CCC(COc2ccc(CN3Cc4ccc(F)cc4C3)n(C)c2=O)CC1` [Compound 11, 4-(((6-((5-fluoroisoindolin-2-yl)methyl)-1-methyl-2-oxo-1,2-dihydropyridin-3-yl)oxy)methyl)-N,N-dimethylpiperidine-1-sulfonamide], it took 1.98 nM to reach half-maximal inhibition (IC50).

Consider `Cn1c(CN2Cc3ccc(F)cc3C2)ccc(OCC2CCN(S(C)(=O)=O)CC2)c1=O` [Compound 5, 6-((5-fluoroisoindolin-2-yl)methyl)-1-methyl-3-((1-(methylsulfonyl)piperidine-4-yl)methoxy)pyridin-2(1H)-one], for which the midpoint of inhibition, the IC50, lay at 8.49 nM.

`[2H]C([2H])([2H])n1c(CN2Cc3ccc(C(F)(F)F)cc3C2)ccc(OCC2CCN(S(=O)(=O)C3CC3)CC2)c1=O` [Compound 19, 3-((1-(cyclopropylsulfonyl)piperidine-4-yl)methoxy)-1-(methyl-d3)-6-((5-(trifluoromethyl)isoindolin-2-yl)methyl)pyridin-2(1H)-one]: half-maximal inhibition (IC50) was put at 7.8 nM.

As for `CCn1c(CN2Cc3ccccc3C2)ccc(OCC2CCN(S(=O)(=O)C(F)(F)F)CC2)c1=O` [Compound 27, 1-ethyl-6-(isoindolin-2-ylmethyl)-3-((1-((trifluoromethyl)sulfonyl)piperidine-4-yl)methoxy)pyridin-2(1H)-one], half-maximal inhibition (IC50) was put at 0.136 nM.

The compound `CC(=O)N1CCC(COc2ccc(CN3Cc4ccccc4C3)n(C)c2=O)CC1` [Compound 7, 3-((1-acetylpiperidine-4-yl)methoxy)-6-(isoindolin-2-ylmethyl)-1-methylpyridin-2(1H)-one] had an IC50 of 9.34 nM.

`[2H]C([2H])([2H])n1c(CN2Cc3ccccc3C2)ccc(OCC2CCN(S(C)(=O)=O)CC2)c1=O` [Compound 17, 6-(isoindolin-2-ylmethyl)-1-(methyl-d3)-3-((1-(methylsulfonyl)piperidine-4-yl)methoxy)pyridin-2(1H)-one] showed a half-inhibitory concentration (IC50) of 3.76 nM.

In turn, `Cn1c(CN2Cc3ccc(C(F)(F)F)cc3C2)ccc(OCC2CCN(S(C)(=O)=O)CC2)c1=O` [Compound 13, 1-methyl-3-((1-(methylsulfonyl)piperidine-4-yl)methoxy)-6-((5-(trifluoromethyl)isoindolin-2-yl)methyl)pyridin-2(1H)-one] came in with an IC50 of 12 nM.

`CN(C)S(=O)(=O)N1CCC(COc2ccc(CN3Cc4ccc(C(F)(F)F)cc4C3)n(C)c2=O)CC1` [Compound 22, N,N-dimethyl-4-(((1-methyl-2-oxo-6-((5-(trifluoromethyl)isoindolin-2-yl)methyl)-1,2-dihydropyridin-3-yl)oxy)methyl)piperidine-1-sulfonamide]: half-maximal inhibition (IC50) was put at 8.61 nM.

For the compound `[2H]C([2H])([2H])n1c(CN2Cc3ccc(F)cc3C2)ccc(OCC2CCN(S(=O)(=O)C3COC3)CC2)c1=O` [Compound 15, 6-((5-fluoroisoindolin-2-yl)methyl)-1-(methyl-d3)-3-((1-(oxetan-3-ylsulfonyl)piperidine-4-yl)methoxy)pyridin-2(1H)-one], 3.99 nM corresponded to half-maximal inhibition (IC50).

Consider `CCn1c(CN2Cc3ccccc3C2)ccc(OCC2CCN(S(=O)(=O)NC)CC2)c1=O` [Compound 29, 4-(((1-ethyl-6-(isoindolin-2-ylmethyl)-2-oxo-1,2-dihydropyridin-3-yl)oxy)methyl)-N-methylpiperidine-1-sulfonamide], for which the IC50 came to 14.8 nM.

For `Cn1c(CN2Cc3ccccc3C2)ccc(OCC2CCN(S(=O)(=O)C3CC3)CC2)c1=O` [Compound 3, 3-((1-(cyclopropylsulfonyl)piperidine-4-yl)methoxy)-6-(isoindolin-2-ylmethyl)-1-methylpyridin-2(1H)-one], the IC50 came out at 2.25 nM.

For `Cn1c(CN2Cc3ccc(C(F)(F)F)cc3C2)ccc(OCC2CCN(S(=O)(=O)C3CC3)CC2)c1=O` [Compound 21, 3-((1-(cyclopropylsulfonyl)piperidine-4-methyl)methoxy)-1-methyl-6-((5-(trifluoromethyl)isoindolin-2-yl)methyl)pyridin-2(1H)-one], the midpoint of inhibition, the IC50, lay at 2.21 nM.

Turning to `Cn1c(CN2Cc3ccc(C(F)(F)F)cc3C2)ccc(OCC2CCN(S(=O)(=O)C3COC3)CC2)c1=O` [Compound 23, 1-methyl-3-((1-(oxetan-3-ylsulfonyl)piperidine-4-yl)methoxy)-6-((5-(trifluoromethyl)isoindolin-2-yl)methyl)pyridin-2(1H)-one], the midpoint of inhibition, the IC50, lay at 3.57 nM.

`CS(=O)(=O)N1CCC(COc2ccc(CN3Cc4ccccc4C3)[nH]c2=O)CC1` [Compound 2, 6-(isoindolin-2-ylmethyl)-3-((1-(methylsulfonyl)piperidine-4-yl)methoxy)pyridin-2(1H)-one] showed an IC50 of 222 nM.

As to `Cn1c(CN2Cc3ccc(F)cc3C2)ccc(OCC2CCN(S(=O)(=O)C3COC3)CC2)c1=O` [Compound 12, 6-((5-fluoroisoindolin-2-yl)methyl)-1-methyl-3-((1-(oxetan-3-ylsulfonyl)piperidine-4-yl)methoxy)pyridin-2(1H)-one], the IC50 was 3.57 nM.

For `[2H]C([2H])([2H])n1c(CN2Cc3ccc(F)cc3C2)ccc(OCC2CCN(S(C)(=O)=O)CC2)c1=O` [Compound 24, 6-((5-fluoroisoindolin-2-yl)methyl)-1-(methyl-d3)-3-((1-(methylsulfonyl)piperidine-4-yl)methoxy)pyridin-2(1H)-one], the IC50 came to 4.86 nM.

In turn, `Cn1c(CN2Cc3ccccc3C2)ccc(OCC2CCN(S(=O)(=O)C3COC3)CC2)c1=O` [Compound 6] registered an IC50 of 1.94 nM.

For the compound `[2H]C([2H])([2H])n1c(CN2Cc3ccc(C(F)(F)F)cc3C2)ccc(OCC2CCN(S(C)(=O)=O)CC2)c1=O` [Compound 14, 1-(methyl-d3)-3-((1-(methylsulfonyl)piperidine-4-yl)methoxy)-6-((5-(trifluoromethyl)isoindolin-2-yl)methyl)pyridin-2(1H)-one], the IC50 is 4.75 nM.
